Results on 38 compounds are retold here after US12516016B2, “GPX4 inhibitors, pharmaceutical compositions thereof, and their use for treating GPX4-mediated diseases” (EUBULUS BIOTHERAPEUTICS (HONG KONG) LIMITED, priority 2020, dated 2026).

The assay has as its system hepatocellular carcinoma cell line Hub-7. Nature of the assay: Cell proliferation assay (CELL-TITER GLO cell viability). The format is cell-based. Conditions: 24 h, Hub-7 cells, 24 h incubation, read-out: Inhibition of Cell Proliferation EC50. Here is the method:
The activity of a test compound was determined in a cell proliferation assay using the hepatocellular carcinoma cell line […]. Cells (4,000 cells per well) were seeded in a 96-well tissue culture plate. After incubated overnight, a test compound was added at predetermined concentrations, starting with 10 μM and followed by 3-fold serial dilution. After the cells were incubated for 24 h, cell viability was determined using a CELL-TITER GLO® assay. The CELL-TITER GLO® reagent (50 μL) was added to each well and the luminescence was measured by a multimode microplate reader after a brief period of shaking. EC50 values were determined for the test compound. The results are summarized in Table 1, wherein A represents a value no greater than 100 nM, B represents a value greater than 100 nM but no greater than 500 nM, C represents a value greater than 500 nM but no greater than 2 μM, D represents a value greater than 2 μM but no greater than 10 μM; and E represents a value greater than 10 μM.
On to `C#CC(=O)N(c1ccc(Cl)cc1)C(C(=O)NC(C)(C)C)c1ccc(N)cc1` (centres unmarked) [A4, N-(1-(4-Aminophenyl)-2-(tert-butylamino)-2-oxoethyl)-N-(4-chlorophenyl)-propiolamide], for which the EC50 lay in the range of 100 to 500 nM.
Consider `C#CC(=O)N(c1ccc2ncsc2c1)C(C(=O)NCc1ccccc1)c1ccccc1` (centres unmarked) [A98, N-(Benzo[d]thiazol-6-yl)-N-(2-(benzylamino)-2-oxo-1-phenylethyl)-propiolamide], for which the EC50 lay in the range of 100 to 500 nM.
The value for `C#CC(=O)N(c1ccc(Cl)c(Cl)c1)C1(C(=O)NCc2ccccc2)CCOCC1` [A108, N-Benzyl-4-(N-(3,4-dichlorophenyl)propiolamido)tetrahydro-2H-pyran-4-carboxamide] was at most 100 nM; that for `C#CC(=O)N(c1cccc(C(N)=O)c1)C(C(=O)NCc1ccccc1)c1cccc(N)c1` (centres unmarked) [A47, 3-(N-(1-(3-Aminophenyl)-2-(benzylamino)-2-oxoethyl)propiolamido)-benzamide] was above 10000 nM; that for `C#CC(=O)N(c1ccc(O)cc1)C(C(=O)NCc1ccccc1)c1ccc(N)cc1` (centres unmarked) [A64, N-(1-(4-Aminophenyl)-2-(benzylamino)-2-oxoethyl)-N-(4-hydroxyphenyl)-propiolamide] was 2000 to 10000 nM.
`COc1cccc(N(C(=O)CCl)C(C(=O)NCCc2ccccc2)c2ccc([N+](=O)[O-])cc2)c1` (centres unmarked) [C10, 2-Chloro-N-(3-methoxyphenyl)-N-(1-(4-nitrophenyl)-2-oxo-2-(phenethylamino)-ethyl)acetamide]: the EC50 is 100 to 500 nM.
The value for `C#CC(=O)N(Cc1ccccc1)C(C(=O)NCc1ccccc1)c1cccc(N)c1` (centres unmarked) [A36, N-(1-(3-Aminophenyl)-2-(benzylamino)-2-oxoethyl)-N-benzylpropiolamide] was 500 to 2000 nM; that for `C=CC(=O)N(c1ccc2c(cnn2C)c1)C1(C(=O)NCc2ccccc2)CCOCC1` [B11, N-Benzyl-4-(N-(1-methyl-1H-indazol-5-yl)acrylamido)tetrahydro-2H-pyran-4-carboxamide] was above 10000 nM; that for `C#CC(=O)N(c1ccc(OC)c(Cl)c1)C(C(=O)NCc1ccccc1)c1ccc(N)cc1` (centres unmarked) [A53, N-(1-(4-Aminophenyl)-2-(benzylamino)-2-oxoethyl)-N-(3-chloro-4-methoxy-phenyl)propiolamide] was at most 100 nM.
Turning to `O=C(NCCc1ccccc1)C(c1ccc([N+](=O)[O-])cc1)N(C(=O)CCl)c1cccc(O)c1` (centres unmarked) [C9, 2-Chloro-N-(3-hydroxyphenyl)-N-(1-(4-nitrophenyl)-2-oxo-2-(phenethylamino)-ethyl)acetamide], the EC50 fell in the range of 2000 to 10000 nM.
The value for `C#CC(=O)N(c1ccc2c(c1)C(=O)OC2)C(C(=O)NCc1ccccc1)c1ccccc1` (centres unmarked) [A143, N-(2-(Benzylamino)-2-oxo-1-phenylethyl)-N-(3-oxo-1,3-dihydroisobenzofuran-5-yl)propiolamide] was at most 100 nM; that for `C#CC(=O)N(c1cccc(C(=O)OC)c1)C(C(=O)NCc1ccccc1)c1cccc(N)c1` (centres unmarked) [A122] was at most 100 nM.
The value for `C#CC(=O)N(c1cccc(NC(C)=O)c1)C(C(=O)NCc1ccccc1)c1cccc(N)c1` (centres unmarked) [A44, N-(3-Acetamidophenyl)-N-(1-(3-aminophenyl)-2-(benzylamino)-2-oxoethyl)-propiolamide] was 2000 to 10000 nM; that for `C#CC(=O)N(c1cccc(Cl)c1)C(C(=O)NCc1ccccc1)c1ccncc1` (centres unmarked) [A124] was 500 to 2000 nM; that for `C#CC(=O)N(c1cccc(Cl)c1)C1(C(=O)NCc2ccccc2)CCCC(C(=O)OC)C1` (centres unmarked) [A173, Methyl 3-(benzylcarbamoyl)-3-(N-(3-chlorophenyl)propiolamido)cyclohexane-carboxylate] was at most 100 nM.
Turning to `COc1ccc(N(C(=O)CCl)C2(C(=O)NCCc3ccccc3)CCC(F)(F)CC2)cc1Cl` [C20, 1-(2-Chloro-N-(3-chloro-4-methoxyphenyl)acetamido)-4,4-difluoro-N-phenethyl-cyclohexane-1-carboxamide], the EC50 fell in the range of 100 to 500 nM.
The figure for `C=CC(=O)N(C1CCC1)C1(C(=O)NCc2ccccc2)CCOCC1` [B8, N-Benzyl-4-(N-cyclobutylacrylamido)tetrahydro-2H-pyran-4-carboxamide] is above 10000 nM; for `C#CC(=O)N(c1ccc(C#N)cc1)C(C(=O)NCc1ccccc1)c1ccc(N)cc1` (centres unmarked) [A66, N-(1-(4-Aminophenyl)-2-(benzylamino)-2-oxoethyl)-N-(4-cyanophenyl)-propiolamide] it is at most 100 nM.
The value for `C#CC(=O)N(c1cccc(S(C)(=O)=O)c1)C(C(=O)NCc1ccccc1)c1ccccc1` (centres unmarked) [A92, N-(2-(Benzylamino)-2-oxo-1-phenylethyl)-N-(3-(methylsulfonyl)-phenyl)-propiolamide] was 100 to 500 nM; that for `COc1ccc(N(C(=O)CCl)C2(C(=O)NCCc3ccccc3)CCOCC2)cc1Cl` [C26, 4-(2-Chloro-N-(3-chloro-4-methoxyphenyl)acetamido)-N-phenethyltetrahydro-2H-pyran-4-carboxamide] was at most 100 nM.
The figure for `COc1ccc(N(C(=O)CCl)C(C(=O)NCCc2ccccc2)c2ccc(NC(=O)CO)cc2)cc1Cl` (centres unmarked) [C4, 2-chloro-N-(3-chloro-4-methoxyphenyl)-N-(1-(4-(2-hydroxyacetamido)phenyl)-2-oxo-2-(phenethylamino)ethyl)acetamide] is 500 to 2000 nM.
Turning to `C#CC(=O)N(c1ccc2[nH]ccc2c1)C1(C(=O)NCc2ccccc2)CCOCC1` [A152, 4-(N-(1H-Indol-5-yl)propiolamido)-N-benzyltetrahydro-2H-pyran-4-carboxamide], the EC50 lay in the range of 2000 to 10000 nM.
Turning to `C#CC(=O)N(c1ccc(CO)cc1)C(C(=O)NC(C)(C)C)c1ccc(N)cc1` (centres unmarked) [A16, N-(1-(4-Aminophenyl)-2-(tert-butylamino)-2-oxoethyl)-N-(4-(hydroxymethyl)-phenyl)propiolamide], the EC50 was 2000 to 10000 nM.
The figure for `CC#CC(=O)N(c1ccc(Cl)c(Cl)c1)C(C(=O)NCc1ccccc1)c1ccccc1` (centres unmarked) [A132, N-(2-(Benzylamino)-2-oxo-1-phenylethyl)-N-(3,4-dichlorophenyl)but-2-ynamide] is above 10000 nM; for `Cn1ncc2cc(N(C(=O)CCBr)C3(C(=O)NCc4ccccc4)CCOCC3)ccc21` [D6, N-Benzyl-4-(3-bromo-N-(1-methyl-1H-indazol-5-yl)propanamido)tetrahydro-2H-pyran-4-carboxamide] it is above 10000 nM; for `C#CC(=O)N(c1cccc(Cl)c1)C1(C(=O)NCS(=O)(=O)c2ccc(C)cc2)CCOCC1` [A159, 4-(N-(3-Chlorophenyl)propiolamido)-N-(tosylmethyl)tetrahydro-2H-pyran-4-carboxamide] it is 500 to 2000 nM.
The figure for `C#CC(=O)N(c1cccc(Cl)c1Cl)C(C(=O)NCc1ccccc1)c1ccccc1` (centres unmarked) [A82, N-(2-(Benzylamino)-2-oxo-1-phenylethyl)-N-(2,3-dichlorophenyl)-propiolamide] is at most 100 nM; for `C#CC(=O)N(c1cccc(Cl)c1)C1(C(=O)NCC(=O)N2CCCC(C(=O)OC)C2)CCOCC1` (centres unmarked) [A184, Methyl 1-(2-(4-(N-(3-chlorophenyl)propiolamido)tetrahydro-2H-pyran-4-carboxamido)acetyl)piperidine-3-carboxylate] it is 100 to 500 nM; for `C#CC(=O)N(c1cc(Cl)ccc1Cl)C(C(=O)NCc1ccccc1)c1ccccc1` (centres unmarked) [A145, N-(2-(Benzylamino)-2-oxo-1-phenylethyl)-N-(2,5-dichlorophenyl)propiolamide] it is at most 100 nM.
The value for `COc1ccc(N(C(=O)CCl)C(C(=O)NCCc2ccccc2)c2ccc(N)cc2)cc1Cl` (centres unmarked) [C3, 2-(4-aminophenyl)-2-(2-chloro-N-(3-chloro-4-methoxyphenyl)acetamido)-N-phenethylacetamide] was 100 to 500 nM; that for `CC#CC(=O)N(c1ccc2c(cnn2C)c1)C1(C(=O)NCc2ccccc2)CCCOC1` (centres unmarked) [A126, N-Benzyl-3-(N-(1-methyl-1H-indazol-5-yl)but-2-ynamido)tetrahydro-2H-pyran-3-carboxamide] was 2000 to 10000 nM.
Regarding `C#CC(=O)N(c1cccc(Cl)c1)C1(C(=O)NCc2ccccc2)CCCCC1` [A101, N-Benzyl-1-(N-(3-chlorophenyl)propiolamido)cyclohexanecarboxamide], the EC50 is at most 100 nM.
The figure for `C#CC(=O)N(c1cccc(Cl)c1)C(C(=O)NCC1CC1)c1ccccc1` (centres unmarked) [A142, N-(3-Chlorophenyl)-N-(2-((cyclopropylmethyl)amino)-2-oxo-1-phenylethyl)-propiolamide] is at most 100 nM; for `C#CC(=O)N(c1ccc(Cl)c(Cl)c1)C1(C(=O)NCc2ccccc2)CCCCC1` [A109, N-Benzyl-1-(N-(3,4-dichlorophenyl)propiolamido)cyclohexanecarboxamide] it is 100 to 500 nM.
In the case of `Cn1ncc2cc(N(C(=O)C(F)F)C3(C(=O)NCc4ccccc4)CCOCC3)ccc21` [D1, N-Benzyl-4-(2,2-difluoro-N-(1-methyl-1H-indazol-5-yl)acetamido)tetrahydro-2H-pyran-4-carboxamide], the EC50 is above 10000 nM.
The value for `C#CC(=O)N(c1cccc2c1OCO2)C1(C(=O)NCc2ccccc2)CCOCC1` [A141, 4-(N-(Benzo[d][1,3]dioxol-4-yl)propiolamido)-N-benzyltetrahydro-2H-pyran-4-carboxamide] was at most 100 nM; that for `C#CC(=O)N(c1ccc2c(ccn2C)c1)C1(C(=O)NCc2ccccc2)CCOCC1` [A153, N-Benzyl-4-(N-(1-methyl-1H-indol-5-yl)propiolamido)tetrahydro-2H-pyran-4-carboxamide] was at most 100 nM; that for `C#CC(=O)N(c1ccc2c(cnn2C)c1)C(C(=O)NCc1ccccc1)c1ccccc1` (centres unmarked) [A107, N-(2-(Benzylamino)-2-oxo-1-phenylethyl)-N-(1-methyl-1H-indazol-5-yl)-propiolamide] was at most 100 nM.
